Values joined by “and” are separate entries in the source; they are usually repeats but may differ in a detail not shown here. Identical values can stand only once.

Assay type in all cases: in vivo, Balb/c mice
Assay [1] concerns cells from peripheral blood (monocytes, granulocytes). Description: Phagocytosis of HEMA particles by cells from peripheral blood after intraperitoneal injection. As to conditions: for % of phagocytosing granulocytes / % of phagocytosing monocytes: peripheral blood 24 hrs after i.p. injection. The method, then:
A group of Balb/c mice (Jackson laboratory, Bar Harbor, ME, USA) has been injected intraperitoneally with either PBS (Control; Sigma, St. Louis, Mo., USA), Laminaritetraose or Laminaripentaose. 24 hrs later, mice were sacrified, peripheral blood from the orbital plexus was collected into heparine (5 IU/ml) (Sigma).
After counting, a test of phagocytosis of HEMA particles (synthetic microspheres prepared from 2-hydroxyethylmethacrylate copolymer) was performed as described in: Rembaum et al., 1976, Vetvicka et al. 1982, Bilej et al., 1989.
0.1 ml of heparinized fresh blood was added to 0.05 ml of diluted HEMA particles (5×10^8/ml) and incubated for 60 minutes at 37° C. with occasional gentle agitation.
After the end of incubation, the cell suspension was smeared over microscope slides. Smears were evaluated under the optical microscope after Accustain (modified Wright stain, Sigma) staining.
Cells with at least three engulfed particles were considered to be positive.

The subject of the next assay is peritoneal macrophages. The assay is described as follows: Phagocytosis of HEMA particles by cells from peritoneal cavity after intraperitoneal injection. The settings on record: for % of phagocytosing macrophages: peritoneal cells 24 hrs after i.p. injection. How it is done: A group of Balb/c mice (Jackson laboratory, Bar Harbor, Me., USA) has been injected intraperitoneally with either PBS (control), Laminaritetraose or Laminaripentaose. 24 hrs later, mice were sacrificed, peritoneal cells were collected into Hanks medium (Sigma).
After counting the cells in hemocytometer, the peritoneal cells were diluted to lxlO7 cells in RPMI 1640 medium (Sigma) with 5% fetal calf serum (Hyclone, Logan, Utah, USA).
2×10^6 cells in 0.2 ml of RPMI 1640 medium supplemented with 5% fetal calf serum were mixed with the same volume of HEMA particles (5×10^8/ml).
The suspension was incubated for 60 minutes at 37° C. with occasional agitation. Incubation was terminated by centrifugation (150 g for 5 minutes) and the pellet was resuspended.
Macrophages with ingested particles were scored under the optical microscope in smears after Accustain (modified Wright stain, Sigma) staining.
Cells with six or more engulfed particles were considered to be positive.

The subject of assay [2] is peripheral blood cells (monocytes, lymphocytes, granulocytes). The assay is described as follows: Differential count in blood. As to conditions: for % of granulocytes / % of lymphocytes / % of monocytes: peripheral blood 24 hrs after i.p. injection. The method, then: Using the same experimental groups as described above in Example 3, two extra microscopic slides from each experimental sample were prepared. After Accustain (modified Wright stain, Sigma) staining, the slides were evaluated using the optical microscope for presence of individual types of cells, i.e. monocytes, lymphocytes and granulocytes.

Assay [3] concerns peritoneal cells (macrophages, lymphocytes, mast cells). Description: Differential count in peritoneal cells. The settings on record: for % of lymphocytes / % of macrophages / % of mast cells: peritoneal cells 24 hrs after i.p. injection. The method, then: Using the same experimental groups as described above in Example 4, two extra microscopic slides from each experimental sample were prepared. After Accustain (modified Wright stain, Sigma) staining, the slides were evaluated using the optical microscope for presence of individual types of cells, i.e. macrophages, lymphocytes and mast cells.

Another assay deals with TNF-alpha. Description: Cytokine level in peripheral blood: TNF-alpha in serum by OptEIA Mouse TNF-alpha ELISA. As to conditions: for TNF-alpha level (Table 6, same experiments as Table 5): 250 μg/mouse, unit not given in Table 6 (Table 5: pg/ml); for Relative activity on TNF-alpha level (in words): comparison between substances, Table 6, 24 and 48 h. How it is done: Balb/c mice were intraperitoneally injected with 50 μg of Laminaritetraose, Laminaripentaose, Laminarin or Lentinan (purchased from NIH, Bethesda, Md., USA) in PBS.
After various time intervals (30, 60 and 90 minutes, respectively), after the injection of Laminaritetraose, Laminaripentaose, Laminarin, Lentinan only, the mice were killed and blood was collected in Eppendorf tubes.
Subsequently, the serum of the collected blood was separated, collected and stored at −80° C. for no more than 1 week.
The level of TNF-alpha in the serum samples was evaluated using a commercial kit marketed as OptEIA Mouse TNF-alpha (Mono/Mono) Set by the Company Pharmingen, San Diego, Calif., USA); the manufacturer's instructions were followed.
In connection with the experiments carried out by Applicants, Balb/c mice were intraperitoneally injected with various doses (50, 100, and 250 μg) of Soluble laminarin and Lentinan (from NIH, Bethesda, Md., USA) in PBS.
Control mice were treated with PBS only. […]
Subsequently, the serum was prepared, collected and stored at −80° C. for no more than 1 week.
The level of TNF-alpha in serum samples was evaluated using a commercial kit marketed as OptEIA Mouse TNF-alpha (Mono/Mono) Set by the Company Pharmingen, San Diego, Calif., USA); the manufacturer's instructions were followed.
In that respect, The wells of 96-well plates were coated with 0.1 ml/well of capture antibody (provided in the above kit) diluted in coating buffer (also provided in the above kit); the expression “capture antibody” designates first antibody used for coating of wells; this antibody captures the tested cytokines from the solution; in this assay it was anti-mouse-TNF-alpha monoclonal antibody.
The plates were sealed and incubated overnight at 4° C.
Individual wells were emptied by aspiration and washed 3 times with over 300 el/well of wash buffer (also provided in the kit).
Reaction was blocked with 200 el/well of assay dilutant diluent (also provided in the kit) and by incubation for 60 minutes at room temperature.
Again, individual wells were emptied by aspiration and washed 3 times with over 300 el/well of the same wash buffer.
Standards (also provided in the kit) and samples of serum were diluted in assay diluent (also provided in the kit) and pipetted (100 μl/well) in appropriate wells; as far as the dissolution rate is concerned standards (part of the kit) were diluted according to the instructions into following concentrations: 1000 pg/ml, 500 pg/ml, 250, 125, 62.5, 31.3, and 15.6 pg/ml.
The plates were sealed and incubated for 60 minutes at room temperature. Individual wells were aspirated and washed 3 times with over 300 μl/well of the same wash buffer. A quantity of 100 μl/well of a working detector (antibody-avidin-HRP conjugate also provided in the kit) was added into each well.
The plates were sealed with plastic foils and incubated for 60 minutes at room temperature. Individual wells were emptied by aspiration and washed 3 times with over 300 μl/well of same wash buffer.
A quantity of 100 μl/well of substrate solution (also provided in the kit) was added to each well and the plates were incubated for 30 minutes in the dark at room temperature; “substrate solution” is formed by mixing a substrate reagent A containing hydrogen peroxide and Substrate reagent B containing 3,3′,5,5′-tetramethylbenzidine in organic solvent; when mixed together, the reagent reacts with peroxidase-labeled conjugates to develop a blue color.
A quantity of 50 μl/well of stop solution provided in the kit and adapted to stop the reaction was added to each well and the optical density was determined using a STL ELISA reader (marketed by Tecan U.S., Research Triangle Park, N.C.) at 450 nm with a correction at 570 nm.
The concentration of TNF-alpha, in pg/ml, in the blood of the mice treated as hereabove disclosed has been determined at the following moments: 30, 60 and 90 minutes after the injection of Laminaritetraose, Laminaripentaose, Lentinan and control. […]
Background: ELISA stands for enzyme-linked immunosorbent assay.

The mark [4] stands for this setting: individual values, cells with at least three engulfed HEMA particles positive.
Where [5] appears, read: mean, at least three engulfed HEMA particles.

Turning to `OC[C@H]1O[C@@H](O[C@@H]2[C@@H](O)[C@H](O[C@@H]3[C@@H](O)[C@H](O[C@@H]4[C@@H](O)[C@H](O[C@@H]5[C@@H](O)[C@H](O)O[C@H](CO)[C@H]5O)O[C@H](CO)[C@H]4O)O[C@H](CO)[C@H]3O)O[C@H](CO)[C@H]2O)[C@H](O)[C@@H](O)[C@@H]1O` [Laminaripentaose, β-D-glucopyranosyl-(1→3)-β-D-glucopyranosyl-(1→3)-β-D-glucopyranosyl-(1→3)-β-D-glucopyranosyl-(1→3)-β-D-glucopyranose], the “% of phagocytosing granulocytes” value was 40.8% and 42.5% and 46.4% in assay [1] (setting [4]); 43.2% in assay [1] (setting [5]). The “% of phagocytosing monocytes” value in assay [1] (setting [4]) is 41.6% and 43.1% and 49.6%; in assay [1] (setting [5]) it was 44.8%. Moreover, the “Effect on phagocytosis in monocytes and granulocytes (in words)” value in assay [1] (peripheral blood, versus PBS control) is “strongly stimulate phagocytosis”. The “% of phagocytosing macrophages” value was 54.9% and 57.3% and 62.7% in the assay with peritoneal macrophages (individual values, cells with six or more engulfed HEMA particles positive); 58.3% with peritoneal macrophages (mean, six or more engulfed HEMA particles). The “Effect on phagocytosis of peritoneal macrophages (in words)” value with peritoneal macrophages (peritoneal cells, versus PBS control) is given as “strongly stimulate phagocytosis”. Moreover, the “% of granulocytes” value is 33.8% and 35.9% and 36.9% in assay [2] (individual values); 35.5% in assay [2] (mean). In addition, the “% of lymphocytes” value in assay [2] (individual values) is 57.1% and 54.1% and 53.3%; in assay [2] (mean), 54.8%; in assay [3] (individual values) it was 48.1% and 48.0% and 34.7%; in assay [3] (mean), 43.4%. The “% of monocytes” value in assay [2] (individual values) was 9.1% and 1.0% and 9.8%; in assay [2] (mean) it was 9.4%. For the same compound, the “Effect on number of granulocytes in the peripheral blood (in words)” value in assay [2] (versus PBS control) is listed as “increase the number of granulocytes”. The “% of macrophages” value was 50.4% and 48.1% and 59.8% in assay [3] (individual values); 52.8% in assay [3] (mean). Also, the “% of mast cells” value in assay [3] (individual values) was 1.5% and 3.9% and 5.5%; in assay [3] (mean), 3.6%. In addition, the “Effect on migration of macrophage into the peritoneal cavity (in words)” value in assay [3] (versus PBS control) is “stimulate the migration of macrophage”. Besides, the “Concentration of TNF alpha in blood of treated mice” value (from here on “Concentration of TNF alpha”) is 34.3 pg/mL with TNF-alpha (50 μg/mouse i.p., 30 min); 37.0 pg/mL with TNF-alpha (50 μg/mouse i.p., 60 min); 71.3 pg/mL in the assay on TNF-alpha (50 μg/mouse i.p., 90 min); 53.0 pg/mL in the assay on TNF-alpha (100 μg/mouse i.p., 30 min); 46.5 pg/mL with TNF-alpha (100 μg/mouse i.p., 60 min); 93.2 pg/mL in the assay with TNF-alpha (100 μg/mouse i.p., 90 min). Further, the “Concentration of TNF alpha” value in the assay with TNF-alpha (250 μg/mouse i.p., 30 min) is 42.1 pg/mL; in the assay on TNF-alpha (250 μg/mouse i.p., 60 min) it was 36.4 pg/mL; with TNF-alpha (250 μg/mouse i.p., 90 min) it was 24.4 pg/mL. Moreover, the TNF-alpha level (Table 6, same experiments as Table 5) amounted to 79.6 pg/mL with TNF-alpha (24 hours) and 38.7 pg/mL in the assay on TNF-alpha (48 hours). The “Relative activity on TNF-alpha level (in words)” value with TNF-alpha is “more active than Laminaritetraose”; in the assay with TNF-alpha (listed as laminaripentaose), “more active than yest derived glucan (Lentinan)”. The “Increase of TNF-alpha secretion compared with Lentinan (in words)” value with TNF-alpha (low doses, indirect activation of macrophages and cytotoxic T lymphocytes) is on record as “significantly higher”.
Lentinan [reference compound]: the “Concentration of TNF alpha” value in the assay on TNF-alpha (50 μg/mouse i.p., 30 min) is 20 pg/mL; in the assay on TNF-alpha (50 μg/mouse i.p., 60 min), 15.7 pg/mL; with TNF-alpha (50 μg/mouse i.p., 90 min), 32.0 pg/mL; in the assay on TNF-alpha (100 μg/mouse i.p., 30 min), 28 pg/mL; with TNF-alpha (100 μg/mouse i.p., 60 min) it was 30.7 pg/mL; in the assay on TNF-alpha (100 μg/mouse i.p., 90 min) it was 20.3 pg/mL. In addition, the “Concentration of TNF alpha” value with TNF-alpha (250 μg/mouse i.p., 30 min) came out at 86.3 pg/mL; in the assay on TNF-alpha (250 μg/mouse i.p., 60 min), 68.7 pg/mL; in the assay with TNF-alpha (250 μg/mouse i.p., 90 min) it was 48.6 pg/mL.

For the origin of these results see patent US20050065114A1, “Therapeutical treatment with oligo-beta- (1,3) -glucans, drugs used in said treatment” (priority 2003, published 2005).
